Read-outs that look alike come from different tables or passages of the source. Marks after values point to notes of the source that are not given here.
What was measured:
[1] = system: isolated rat liver mitochondria; test: Mitochondrial oxygen consumption (glutamate/malate or succinate driven, state 4 and state 3); type: biochemical; settings: for Glutamate/malate driven respiration State 3 / Glutamate/malate driven respiration State 4 / Succinate-driven respiration State 3 / Succinate-driven respiration State 4: oxygen consumption, DMSO-treated = 1; on State 3 respiration driven by succinate at 10XCmax: key: 0 indicates that the drug had no effects (negative); on State 3 respiration driven by succinate at 1XCmax: key: 0 indicates that the drug had no effects (negative)
Method in brief: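 Oxygen uptake on glutamate/malate or on succinate defined state 4; ADP added 3 min later gave state 3. Mitochondria isolated from rat liver by differential centrifugation, adjusted to 1 mg/ml and pretreated 5 min with inhibitor (0.1% DMSO final). Values relative to DMSO control, set to 1.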

RCC III = RCC III activity in submitochondrial particles; type: biochemical, rat; settings: 10-fold Cmax; 15 min; DMSO-treated = 100
Method in brief: (§1)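 Rat submitochondrial particles (1 mg/ml) were treated with test compounds for 15 min. RCC IV, like RCC III, was monitored at 550 nm every 10 s for 2 min, and RCC I/V at 340 nm each minute for 6 min. DMSO samples defined unit activity.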

RCC IV = RCC IV activity in submitochondrial particles; type: biochemical, rat; settings: 10-fold Cmax; 15 min; DMSO-treated = 100
Method in brief: as §1

[2] = system: isolated rat liver mitochondria; test: Mitochondrial inner membrane potential (MMP), Rhodamine 123; type: biochemical
Description: Fig. 3 KI effects on mitochondrial inner membrane potential (MMP). […] In a, c, data are means and standard derivations from three separate experiments. *p < 0.05 as compared to DMSO-treated samples at the end of experiments. In b, data are means of two independent experiments

[3] = system: isolated rat liver mitochondria; test: Mitochondrial swelling (absorbance at 535 nm); type: biochemical
[4] = system: isolated rat liver mitochondria; settings: positive control alamethicin treated samples
[5] = cited from earlier work
[6] = cited from earlier work; remark: listed apart in the source
[7] = system: isolated rat liver mitochondria; test: Mitochondrial ROS production (CM-H2DCFDA)
[8] = 1XCmax, DMSO treated samples set as 1
[9] = 2.5XCmax, DMSO treated samples set as 1
[10] = 5XCmax, DMSO treated samples set as 1
[11] = 10XCmax, DMSO treated samples set as 1
[12] = 1XCmax, difference in signal between KI and DMSO treated samples at the end of experiments

Compound: CNC(=O)c1cc(Oc2ccc(NC(=O)Nc3ccc(Cl)c(C(F)(F)F)c3)c(F)c2)ccn1 [Regorafenib]
- Glutamate/malate driven respiration State 3 ([1]; 1-fold Cmax): 2.33 ± 0.06
- Glutamate/malate driven respiration State 4 ([1]; 1-fold Cmax): 7.45 ± 0.17
- Succinate-driven respiration State 3 ([1]; 1-fold Cmax): 1.05 ± 0.07
- Succinate-driven respiration State 4 ([1]; 1-fold Cmax): 2.95 ± 0.08
- State 3 respiration driven by glutamate/malate at 1XCmax [1, 8]: 2.33±0.06
- State 3 respiration driven by succinate at 1XCmax [1, 8]: 0
- State 4 respiration driven by glutamate/malate at 1XCmax [1, 8]: 7.45±0.17
- State 4 respiration driven by succinate at 1XCmax [1, 8]: 2.95±0.08
- Glutamate/malate driven respiration State 3 ([1]; 2.5-fold Cmax): 2.51 ± 0.04
- Glutamate/malate driven respiration State 4 ([1]; 2.5-fold Cmax): 5.51 ± 0.35
- Succinate-driven respiration State 3 ([1]; 2.5-fold Cmax): 0.84 ± 0.04
- Succinate-driven respiration State 4 ([1]; 2.5-fold Cmax): 3.59 ± 0.14
- State 3 respiration driven by glutamate/malate at 2.5XCmax [1, 9]: 2.51±0.04
- State 3 respiration driven by succinate at 2.5XCmax [1, 9]: 0
- State 4 respiration driven by glutamate/malate at 2.5XCmax [1, 9]: 5.51±0.35
- State 4 respiration driven by succinate at 2.5XCmax [1, 9]: 3.59±0.14
- Glutamate/malate driven respiration State 3 ([1]; 5-fold Cmax): 1.33 ± 0.04
- Glutamate/malate driven respiration State 4 ([1]; 5-fold Cmax): 3.82 ± 0.72
- Succinate-driven respiration State 3 ([1]; 5-fold Cmax): 0.83 ± 0.03
- Succinate-driven respiration State 4 ([1]; 5-fold Cmax): 1.69 ± 0.09
- State 3 respiration driven by glutamate/malate at 5XCmax [1, 10]: 1.33±0.04
- State 3 respiration driven by succinate at 5XCmax [1, 10]: 0
- State 4 respiration driven by glutamate/malate at 5XCmax [1, 10]: 3.82±0.72
- State 4 respiration driven by succinate at 5XCmax [1, 10]: 1.69±0.09
- Glutamate/malate driven respiration State 3 ([1]; 10-fold Cmax): 1.36 ± 0.03
- Glutamate/malate driven respiration State 4 ([1]; 10-fold Cmax): 3.84 ± 0.34
- Succinate-driven respiration State 3 ([1]; 10-fold Cmax): 0.82 ± 0.19
- Succinate-driven respiration State 4 ([1]; 10-fold Cmax): 1.78 ± 0.19
- State 3 respiration driven by glutamate/malate at 10XCmax [1, 11]: 1.36±0.03
- State 3 respiration driven by succinate at 10XCmax [1, 11]: 0
- State 4 respiration driven by glutamate/malate at 10XCmax [1, 11]: 3.84±0.34
- State 4 respiration driven by succinate at 10XCmax [1, 11]: 1.78±0.19
- effect on state 4 respiration ([1]; highest tested concentrations): significant increases
- lowest concentration significantly affecting mitochondrial oxygen consumption ([1]; tested at 1 to 100-fold Cmax): equal to Cmax
- RCC activity III (RCC III): 90.31 ± 13.61 % of control
- RCC activity IV (RCC IV): 95.37 ± 6.45 % of control
- lowest concentration decreasing MMP [2]: onefold
- MMP measured by Rhodamine 123 at 1XCmax [2, 12]: 4244±687*
- MMP measured by Rhodamine 123 at 2.5XCmax ([2]; 2.5XCmax, difference in signal between KI and DMSO treated samples at the end of experiments): 4112±722*
- MMP measured by Rhodamine 123 at 5XCmax ([2]; 5XCmax, difference in signal between KI and DMSO treated samples at the end of experiments): 3961±724*
- MMP measured by Rhodamine 123 at 10XCmax ([2]; 10XCmax, difference in signal between KI and DMSO treated samples at the end of experiments): 3711±588*
- effect on MMP ([2]; up to 100-fold Cmax or highest testable concentration): decrease in MMP
- lowest concentration causing mitochondrial swelling [3]: onefold
- Swelling 1XCmax [3, 12]: 0.46±0.03
- mitochondrial swelling ([3]; onefold Cmax): almost maximal swelling
- effect on mitochondrial swelling ([3]; up to 100-fold Cmax or highest testable concentration, 25 µM calcium chloride): significant mitochondrial swelling
- Cytochrome c release 1XCmax ([4]; 1XCmax): 10.72±1.87 percentage of the positive control group
- Cytochrome c release 2.5XCmax ([4]; 2.5XCmax): 22.56±1.84 percentage of the positive control group
- Cytochrome c release 5XCmax ([4]; 5XCmax): 10.26±0.36 percentage of the positive control group
- Cytochrome c release 10XCmax ([4]; 10XCmax): 7.42±0.36 percentage of the positive control group
- Cmax ([5]; human therapeutic Cmax at FDA recommended dosages, ref product labeling and drug approval packages at the official FDA website): 8.08 µM
- Cmax ([5]; therapeutic maximal blood concentration, ref product labeling): 3900 ng/mL
- DILI potential (based on labeling) ([6]; 1 = DILI positive, 0 = negative, ref product labeling): 1
- Labeling for DILI ([6]; BBW: black box warning, W&P: Warnings and Precautions, ref product labeling): BBW: fatal DILI
- labeling for DILI ([6]; W&P warnings and precautions, BBW black box warnings, ref FDA product labeling): BBW: fatal DILI
- DILI potential (based on labeling) ([6]; ref FDA product labeling): 1
- ROS measured by CM-H2DCFDA at 1XCmax [7, 8]: 0
- ROS measured by CM-H2DCFDA at 2.5XCmax [7, 9]: 0
- ROS measured by CM-H2DCFDA at 5XCmax [7, 10]: 0
- ROS measured by CM-H2DCFDA at 10XCmax [7, 11]: 0
- effect on ROS production ([7]; highest tested concentrations): neither of them affected ROS production

Reference: article PMC5515969, “Effects of 31 FDA approved small-molecule kinase inhibitors on isolated rat liver mitochondria” (Archives of Toxicology, 2016)
